The results in this text go back to patent US5968907A (priority 1997, dated 1999).

For experiment [1], the target named is cholera toxin (Vibrio cholerae serotype O1, UniProt P01556). Description: biochemical. The conditions noted are these: read-out: inhibition of binding of cholera toxin to ganglioside GD1b.
Experiment [2] addresses CFA I pili (Escherichia coli, UniProt P0CK93+P25734). Put plainly: biochemical. To be noted: read-out: inhibition of CFA I pili binding to glycophorin.
Experiment [3] deals with heat-labile enterotoxin from E. coli (Escherichia coli, UniProt P0CK94). In kind it is binding. The conditions noted are these: at the concentration employed in the assay.
Chain of heat-labile enterotoxin from E. coli (P0CK94 whole entry, looked up): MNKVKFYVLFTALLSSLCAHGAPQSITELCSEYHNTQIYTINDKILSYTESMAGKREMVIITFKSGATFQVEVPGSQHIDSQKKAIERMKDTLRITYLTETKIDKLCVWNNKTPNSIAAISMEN

Chain of cholera toxin (P01556 22-124 limits assumed): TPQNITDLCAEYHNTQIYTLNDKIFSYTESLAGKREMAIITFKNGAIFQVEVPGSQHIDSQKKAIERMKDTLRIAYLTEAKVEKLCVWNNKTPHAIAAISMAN
Chain of CFA I pili (P0CK93 24-170): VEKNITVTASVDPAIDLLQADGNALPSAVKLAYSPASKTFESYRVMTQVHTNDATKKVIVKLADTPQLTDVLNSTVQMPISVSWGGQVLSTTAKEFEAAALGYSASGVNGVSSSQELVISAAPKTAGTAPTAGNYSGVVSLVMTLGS
Chain of CFA I pili (P25734 23-360): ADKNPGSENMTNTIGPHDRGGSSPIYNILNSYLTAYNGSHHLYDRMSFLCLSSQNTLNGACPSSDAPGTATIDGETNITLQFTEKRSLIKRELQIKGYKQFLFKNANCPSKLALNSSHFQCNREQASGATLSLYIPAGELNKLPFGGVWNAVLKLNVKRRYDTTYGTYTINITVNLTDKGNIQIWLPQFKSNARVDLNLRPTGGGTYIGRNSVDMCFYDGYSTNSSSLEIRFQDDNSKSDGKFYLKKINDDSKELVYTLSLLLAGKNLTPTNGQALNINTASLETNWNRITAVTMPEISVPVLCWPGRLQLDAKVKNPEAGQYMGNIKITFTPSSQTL

For the compound `CC(CC(S[C@@H]1O[C@H](CO)[C@H](O)[C@H](O)[C@H]1O)c1ccccc1)N[C@@H](Cc1c[nH]cn1)C(=O)O` (stereo partly drawn) [Example H3, Nα-[4-Phenyl-4-(1-thio-β-D-galactopyranosyl)but-2-yl]-L-histidine], the inhibition at 1000 µg/mL in experiment [1] is at least 20%; in experiment [2] it was 13 to 71%.
Taken in the same sequence, the figures for `CC1(C)CCC(N[C@@H](Cc2c[nH]cn2)C(=O)O)CC1S[C@@H]1O[C@H](CO)[C@H](O)[C@H](O)[C@H]1O` (stereo partly drawn) [Example H9, Nα-[4,4-Dimethyl-3-(1-thio-β-D-galactopyranosyl)-cyclohex-1-yl]-L-histidine] were below 20% and 13 to 71%.
`NC1CCCCC(S[C@@H]2O[C@H](CO)[C@H](O)[C@H](O)[C@H]2O)C1` (stereo partly drawn) [Example B5, 3-Aminocyclohept-1-yl 1-Thio-β-D-galactopyranoside]: the inhibition at 1000 µg/mL in experiment [2] fell in the range of 13 to 71%.
Turning to `O=C(O)[C@H](Cc1c[nH]c2ccccc12)NC1CCCC1S[C@@H]1O[C@H](CO)[C@H](O)[C@H](O)[C@H]1O` (stereo partly drawn) [Example I1, Nα-[2-(1-Thio-β-D-galactopyranosyl)cyclopent-1-yl]-L-tryptophan], the inhibition at 1000 µg/mL in experiment [1] was at least 20%; in experiment [2] it was 13 to 71%.
As for `O=C(O)[C@H](Cc1c[nH]cn1)NC1CCCC(S[C@@H]2O[C@H](CO)[C@H](O)[C@H](O)[C@H]2O)C1` (stereo partly drawn) [Example H10, Nα-[3-(1-Thio-β-D-galactopyranosyl)cyclohex-1-yl]-L-histidine], the inhibition at 1000 µg/mL in experiment [1] is below 20%; in experiment [2], 13 to 71%.
Take `O=C(O)CCNC1CCCC(S[C@@H]2O[C@H](CO)[C@H](O)[C@H](O)[C@H]2O)C1` (stereo partly drawn) [Example F10, Nβ-[3-(1-Thio-β-D-galactopyranosyl)cyclohex-1-yl]-β-alanine]: in experiment [3], the “inhibition of binding of heat-labile enterotoxin to ganglioside GD1b” value (from here on “inhibition of binding … to ganglioside GD1b”) is on record as “at least 20%”. The inhibition at 1000 µg/mL in experiment [1] is below 20%.
Consider `CC1(C)CCC(N[C@@H](CCCNC(=N)N)C(=O)O)CC1S[C@@H]1O[C@H](CO)[C@H](O)[C@H](O)[C@H]1O` (stereo partly drawn) [Example J9, Nα-[4,4-Dimethyl-3-(1-thio-β-D-galactopyranosyl)-cyclohex-1-yl]-L-arginine], for which the inhibition at 1000 µg/mL in experiment [1] is below 20%; in experiment [2], 13 to 71%.
`O=C(O)[C@H](Cc1c[nH]cn1)NC1CCCCC(S[C@@H]2O[C@H](CO)[C@H](O)[C@H](O)[C@H]2O)C1` (stereo partly drawn) [Example H5, Nα-[3-(1-Thio-β-D-galactopyranosyl)cyclohept-1-yl]-L-histidine]: the inhibition at 1000 µg/mL in experiment [1] is below 20%; in experiment [2] it was 13 to 71%.
As for `OC[C@H]1O[C@@H](SC2CCCC2O)[C@H](O)[C@@H](O)[C@H]1O` (stereo partly drawn) [Example A1, 2-Hydroxycyclopent-1-yl 1-Thio-β-D-galactopyranoside], the “inhibition of binding … to ganglioside GD1b” value in experiment [3] is on record as “at least 20%”. Further, the inhibition at 1000 µg/mL in experiment [1] was below 20%.
Consider `O=C(O)[C@H](Cc1c[nH]c2ccccc12)NC1CCCCC(S[C@@H]2O[C@H](CO)[C@H](O)[C@H](O)[C@H]2O)C1` (stereo partly drawn) [Example I5, Nα-[3-(1-Thio-β-D-galactopyranosyl)cyclohept-1-yl]-L-tryptophan], for which the “inhibition of binding … to ganglioside GD1b” value in experiment [3] is “at least 20%”. In addition, in experiment [1], the inhibition at 1000 µg/mL is at least 20%.
On to `NC1CCCCC1S[C@@H]1O[C@H](CO)[C@H](O)[C@H](O)[C@H]1O` (stereo partly drawn) [Example B2, 2-Aminocyclohex-1-yl 1-Thio-β-D-galactopyranoside], for which the “inhibition of binding … to ganglioside GD1b” value in experiment [3] is “at least 20%”. Further, the inhibition at 1000 µg/mL in experiment [2] lay within 13 to 71%.
`CC1(C)CC(N[C@@H](Cc2c[nH]cn2)C(=O)O)CC1S[C@@H]1O[C@H](CO)[C@H](O)[C@H](O)[C@H]1O` (stereo partly drawn) [Example H6, Nα-[4,4-Dimethyl-3-(1-thio-β-D-galactopyranosyl)-cyclopent-1-yl]-L-histidine]: the inhibition at 1000 µg/mL in experiment [2] was 13 to 71%.
Turning to `N=C(N)NCCC[C@H](NC1CCC(S[C@@H]2O[C@H](CO)[C@H](O)[C@H](O)[C@H]2O)C1)C(=O)O` (stereo partly drawn) [Example J7, Nα-[3-(1-Thio-β-D-galactopyranosyl)cyclopent-1-yl]-L-arginine], the “inhibition of binding … to ganglioside GD1b” value in experiment [3] is “at least 20%”. The inhibition at 1000 µg/mL in experiment [1] is below 20%.
For `O=C(O)CCNC1CCCCC(S[C@@H]2O[C@H](CO)[C@H](O)[C@H](O)[C@H]2O)C1` (stereo partly drawn) [Example F5, Nβ-[3-(1-Thio-β-D-galactopyranosyl)cyclohept-1-yl]-β-alanine], the “inhibition of binding … to ganglioside GD1b” value in experiment [3] is reported as “at least 20%”. For the same compound, the inhibition at 1000 µg/mL in experiment [1] is below 20%.
Taken in the same sequence, the figures for `CC(C)C[C@H](NC1CCCCC(S[C@@H]2O[C@H](CO)[C@H](O)[C@H](O)[C@H]2O)C1)C(=O)O` (stereo partly drawn) [Example G5, Nα-[1-(1-Thio-β-D-galactopyranosyl)cyclohept-3-yl]-L,Ieucine] were “at least 20%” and at least 20%.
With `O=C(O)[C@H](Cc1c[nH]cn1)NC1CCCCC1S[C@@H]1O[C@H](CO)[C@H](O)[C@H](O)[C@H]1O` (stereo partly drawn) [Example H2, Nα-[2-(1-Thio-β-D-galactopyranosyl)cyclohex-1-yl]-L-histidine], the inhibition at 1000 µg/mL in experiment [1] is below 20%; in experiment [2], 13 to 71%.
As for `CC(CC(C)S[C@@H]1O[C@H](CO)[C@H](O)[C@H](O)[C@H]1O)N[C@@H](Cc1c[nH]cn1)C(=O)O` (stereo partly drawn) [Example H8, Nα-[4-(1-Thio-β-D-galactopyranosyl)pent-2-yl]-L-histidine], the inhibition at 1000 µg/mL in experiment [1] is below 20%; in experiment [2], 13 to 71%.
As to `OC[C@H]1O[C@@H](SCC2C3CCC(C3)C2O)[C@H](O)[C@@H](O)[C@H]1O` (stereo partly drawn) [Example A4, (3-Hydroxynorborn-2-yl)methyl 1-Thio-β-D-galactopyranoside], the “inhibition of binding … to ganglioside GD1b” value in experiment [3] is given as “at least 20%”. Further, in experiment [1], the inhibition at 1000 µg/mL is below 20%.
`O=C(O)[C@H](Cc1c[nH]c2ccccc12)NC1CCCCC1S[C@@H]1O[C@H](CO)[C@H](O)[C@H](O)[C@H]1O` (stereo partly drawn) [Example I2, Nα-[2-(1-Thio-β-D-galactopyranosyl)cyclohex-1-yl]-L-tryptophan]: the “inhibition of binding … to ganglioside GD1b” value in experiment [3] is reported as “at least 20%”. Besides, the inhibition at 1000 µg/mL was below 20% in experiment [1] and 13 to 71% in experiment [2].
On to `O=C(O)[C@H](Cc1c[nH]cn1)NC1CCC(S[C@@H]2O[C@H](CO)[C@H](O)[C@H](O)[C@H]2O)C1` (stereo partly drawn) [Example H7, Nα-[3-(1-Thio-β-D-galactopyranosyl)cyclopent-1-yl]-L-histidine], for which the inhibition at 1000 µg/mL in experiment [2] lay in the range of 13 to 71%.
